Measurements published in US12384756B2, “Piperidinedione derivatives” (INNOCURE THERAPEUTICS, INC., priority 2021, dated 2025).

Experiments:
CRBN = target: T1, CRBN (Homo sapiens, UniProt Q96SW2); experiment: NanoBRET intracellular E3 ligase assay, CRBN binding affinity; details: BRET assay, compared with pomalidomide
T1 construct: host or cells: HEK 293T
Method: The binding affinity of the synthesized compounds to CRBN E3 ligase was measured using PROMEGA NANOBRET™ Intracellular E3 ligase Assay, CRBN [cat #N2910]. Bioluminescence resonance energy transfer (BRET) assay is a method that the transfer of luminescence energy of POI into a bound fluorescent tracer is measured. […] Thus, the affinity of a compound to the POI can be measure.
9.0 mg/ml of DDB1 expression vector and 1.0 mg/ml of NanoLuc-CRBN fusion vector were transfected using LIPOFECTAMINE™ 3000.
Then, the cell lines were treated with a compound prepared at various concentrations, and then mixed for 15 seconds. Then, cell walls were broken by using digitonin, and the mixture was reacted for 25 minutes. Then, the mixture was treated with luciferase substrate. The luminescence intensity and the fluorescence intensity were measure at donor emission wavelength (450 nm) and at acceptor emission wavelength (610 nm), and then BRET ratio was calculated and normalized. BRET ratio was calculated by the following formula: BRET ratio: Acceptor/Donor×1000 [4] CRBN Binding Affinity of the Compound

SHP2 = target: T2, SHP2 (Homo sapiens, UniProt Q06124); experiment: SHP2 protein degradation by western blot in MV-4-11 cells; format: cell-based; details: MV-4-11, 24 hours; for DC50: 50% inhibition of protein expression, read-out: DC50 of SHP2-targeted PROTAC
T2 construct: SHP2 expressed in cells; endogenous in cells; host or cells: MV-4-11
T2 sequence (Q06124 1-593): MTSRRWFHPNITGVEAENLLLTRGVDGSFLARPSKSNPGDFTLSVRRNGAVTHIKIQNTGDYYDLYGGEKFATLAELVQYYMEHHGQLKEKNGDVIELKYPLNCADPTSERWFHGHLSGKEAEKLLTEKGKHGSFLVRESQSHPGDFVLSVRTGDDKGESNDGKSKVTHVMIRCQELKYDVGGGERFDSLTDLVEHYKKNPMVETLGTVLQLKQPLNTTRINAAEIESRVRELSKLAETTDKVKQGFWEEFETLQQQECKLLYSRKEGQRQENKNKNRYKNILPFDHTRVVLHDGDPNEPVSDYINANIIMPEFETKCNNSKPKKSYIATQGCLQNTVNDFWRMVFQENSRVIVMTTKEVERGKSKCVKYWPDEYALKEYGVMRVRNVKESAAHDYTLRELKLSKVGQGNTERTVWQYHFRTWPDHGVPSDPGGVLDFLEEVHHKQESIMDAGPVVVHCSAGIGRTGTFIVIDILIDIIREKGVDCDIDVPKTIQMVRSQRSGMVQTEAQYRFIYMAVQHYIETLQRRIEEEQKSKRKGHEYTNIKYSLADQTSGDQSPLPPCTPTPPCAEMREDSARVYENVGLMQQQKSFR
Method: (§1) Human hematologic cancer cell line [MV-4-11] was cultured in IMDM medium with 10% fetal bovine serum, penicillin [100 U/ml] and streptomycin [[…]]. The synthesized compound was prepared with a stock solution of 10 mM or 50 mM dissolved in DMSO [dimethyl sulfoxide], and it was sequentially diluted to treat the cell line.
To observe the PROTAC's degradation ability to SHP2 expressed in cells, the cells were aliquoted into a 12 well plate at a concentrations of 3×10^5 cells/well, and then the sample was treated for 24 hours. In order to conduct western blotting assay to confirm protein expression, the cell treated with the compound was treated for 30 minutes with 70 μL of RIPA buffer with wherein protease inhibitor is added. Then, cell lysate was collected on ice using a scraper and centrifuged at 4° C. 15,000 rpm for 30 minutes to obtain a supernatant containing protein. Then, SDS-PAGE is conducted for 10 μg of protein per sample, and the protein is transferred to a membrane. The protein is reacted with antibodies of anti-SHP2 and anti-GAPDH at 4° C. for 16 hours, and then, reacted with the secondary antibodies at room temperature for 1 hour. The protein expression is confirmed using SuperSignal™ West Pico PLUS chemiluminescence substrate and image analyzer. The protein expression inhibition was normalized based on the expression value of GAPDH. The amount of protein expression in each sample was measured based on the sample treated with 0.1% DMSO vehicle which was set to 100%. The amount of protein expression was quantified using the Image J program. The change in the amount of protein expression due to the treatment of compound (DC50: the concentration of compounds where the 50% inhibition of protein expression is achieved) was calculated using GraphicPad Prism 8.0 software.

[1] = system: Human hematologic cancer cell line [MV-4-11]; experiment: Anti-proliferative activity (WST-8) of SHP2 targeted PROTAC in MV-4-11; format: cell-based; details: MV-4-11, 72 hours; for IC50: Homo sapiens, MV4-11, WST-8, read-out: IC50 of SHP2-targeted PROTAC (cell proliferation)
Method: as §1
The cell survival was calculated by steps of adding in each well […] of water soluble tetrazolium salt (WST-8) which produces formazon in response to dehydrogenase present in the electron transport chain in mitochondria, incubating for 3 hours, measuring the absorbance at 450 nm, and calculating […] PRISM 8.0 software.

T1 sequence (Q96SW2 whole entry): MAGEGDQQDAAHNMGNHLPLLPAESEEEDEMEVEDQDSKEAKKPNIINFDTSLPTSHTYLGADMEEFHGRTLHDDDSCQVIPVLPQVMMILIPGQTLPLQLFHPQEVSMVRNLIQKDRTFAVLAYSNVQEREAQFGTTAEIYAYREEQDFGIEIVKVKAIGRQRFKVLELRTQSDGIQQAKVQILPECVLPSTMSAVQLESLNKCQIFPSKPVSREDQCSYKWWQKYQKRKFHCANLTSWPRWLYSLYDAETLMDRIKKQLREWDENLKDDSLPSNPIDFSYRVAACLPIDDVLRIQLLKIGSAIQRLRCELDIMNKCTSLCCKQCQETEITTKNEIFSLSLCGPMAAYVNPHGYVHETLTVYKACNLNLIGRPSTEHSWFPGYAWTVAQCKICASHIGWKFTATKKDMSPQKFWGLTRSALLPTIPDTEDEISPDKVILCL
T1 sequence (Q16531 whole entry partner): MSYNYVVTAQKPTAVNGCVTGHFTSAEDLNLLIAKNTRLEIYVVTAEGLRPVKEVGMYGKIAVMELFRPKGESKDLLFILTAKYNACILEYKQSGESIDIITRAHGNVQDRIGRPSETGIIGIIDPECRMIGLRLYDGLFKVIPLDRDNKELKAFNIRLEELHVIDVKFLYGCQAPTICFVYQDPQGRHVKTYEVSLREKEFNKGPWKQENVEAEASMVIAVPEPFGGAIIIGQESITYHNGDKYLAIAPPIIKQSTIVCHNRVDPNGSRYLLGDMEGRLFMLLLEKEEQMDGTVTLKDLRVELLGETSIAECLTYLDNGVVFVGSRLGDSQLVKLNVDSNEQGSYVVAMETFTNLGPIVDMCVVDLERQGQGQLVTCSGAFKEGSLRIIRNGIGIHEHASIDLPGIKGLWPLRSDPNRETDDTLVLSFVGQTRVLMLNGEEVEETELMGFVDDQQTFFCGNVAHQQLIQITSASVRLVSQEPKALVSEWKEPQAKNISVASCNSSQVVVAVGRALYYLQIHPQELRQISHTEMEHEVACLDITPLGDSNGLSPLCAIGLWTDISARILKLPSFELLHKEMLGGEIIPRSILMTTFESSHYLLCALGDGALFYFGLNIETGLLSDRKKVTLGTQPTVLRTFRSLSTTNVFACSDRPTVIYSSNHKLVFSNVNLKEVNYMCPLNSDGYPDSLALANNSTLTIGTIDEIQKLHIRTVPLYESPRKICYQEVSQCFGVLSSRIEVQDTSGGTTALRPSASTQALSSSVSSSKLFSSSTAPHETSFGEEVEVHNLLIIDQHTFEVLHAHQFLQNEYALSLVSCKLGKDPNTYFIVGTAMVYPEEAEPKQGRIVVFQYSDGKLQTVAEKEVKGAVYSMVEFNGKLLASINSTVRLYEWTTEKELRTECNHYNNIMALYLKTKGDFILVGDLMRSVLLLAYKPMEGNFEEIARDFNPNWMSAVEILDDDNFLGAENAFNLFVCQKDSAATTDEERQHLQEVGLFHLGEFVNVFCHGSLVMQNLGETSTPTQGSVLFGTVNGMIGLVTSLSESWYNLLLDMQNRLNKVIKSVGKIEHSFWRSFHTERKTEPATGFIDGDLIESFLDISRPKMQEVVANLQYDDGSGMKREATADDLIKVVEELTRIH

SMILES	CRBN binding affinity (in words) (CRBN)	SHP2 degradation (in words) (SHP2)	DC50 (SHP2)	IC50 [1]	inhibition of cancer cell proliferation (in words) [1]
Cc1nn(C2CCC(=O)NC2=O)c(=O)c2c(F)cccc12 (stereo not shown) [Ex. 7, 3-(8-fluoro-4-methyl-1-oxophthalazin-2(1H)-yl)piperidine-2,6-dione]	excellent	–	–	–	–
Cc1nn(C2CCC(=O)NC2=O)c(=O)c2c(N)cccc12 (stereo not shown) [Ex. 8, 3-(8-amino-4-methyl-1-oxophthalazin-2(1H)-yl)piperidine-2,6-dione]	excellent	–	–	–	–
COc1cccc2cnn(C3CCC(=O)NC3=O)c(=O)c12 (stereo not shown) [Ex. 11, 3-(8-methoxy-1-oxophthalazin-2(1H)-yl)piperidine-2,6-dione]	excellent	–	–	–	–
C[C@@H]1OCC2(CCN(c3cnc(Sc4cccc(NC(=O)CCC(=O)NCCCOCCOCCOCCCNc5ccc6c(=O)n(C7CCC(=O)NC7=O)ncc6c5)c4Cl)c(N)n3)CC2)[C@@H]1N (stereo partly drawn) [Example 73, N1-(3-((3-amino-5-((3S,4S)-4-amino-3-methyl-2-oxa-8-azaspiro[4.5]decan-8-yl)pyrazin-2-yl)thio)-2-chlorophenyl)-N4-(3-(2-(2-(3-((2-(2,6-dioxopiperidin-3-yl)-1-oxo-1,2-dihydrophthalazin-6-yl)amino)propoxy)ethoxy)ethoxy)propyl)succinamide]	–	effectively degraded	0.0299 µM	0.507 µM	inhibited effectively
C[C@@H]1OCC2(CCN(c3cnc(Sc4cccc(NC(=O)CCC(=O)N5CCN(C(=O)CCOCCOCCOCCOCCNc6cccc7cnn(C8CCC(=O)NC8=O)c(=O)c67)CC5)c4Cl)c(N)n3)CC2)[C@@H]1N (stereo partly drawn) [Example 77, N-(3-((3-amino-5-((3S,4S)-4-amino-3-methyl-2-oxa-8-azaspiro[4.5]decan-8-yl)pyrazin-2-yl)thio)-2-chlorophenyl)-4-(4-(1-((3-(2,6-dioxopiperidin-3-yl)-4-oxo-3,4-dihydrophthalazin-5-yl)amino)-3,6,9,12-tetraoxapentadecan-15-oyl)piperazin-1-yl)-4-oxobutanamide]	–	effectively degraded	0.0702 µM	0.685 µM	inhibited effectively
C[C@@H]1OCC2(CCN(c3cnc(Sc4cccc(NC(=O)CCC(=O)N5CCN(C(=O)CCOCCOCCOCCOCCOCCNc6cccc7cnn(C8CCC(=O)NC8=O)c(=O)c67)CC5)c4Cl)c(N)n3)CC2)[C@@H]1N (stereo partly drawn) [Example 78, N-(3-((3-amino-5-((3S,4S)-4-amino-3-methyl-2-oxa-8-azaspiro[4.5]decan-8-yl)pyrazin-2-yl)thio)-2-chlorophenyl)-4-(4-(1-((3-(2,6-dioxopiperidin-3-yl)-4-oxo-3,4-dihydrophthalazin-5-yl)amino)-3,6,9,12,15-pentaoxaoctadecan-18-oyl)piperazin-1-yl)-4-oxobutanamide]	–	effectively degraded	0.0241 µM	0.422 µM	inhibited effectively
C[C@@H]1OCC2(CCN(c3cnc(Sc4cccc(NC(=O)CCC(=O)N5CCN(C(=O)CCOCCOCCOCCOCCOCCOCCNc6cccc7cnn(C8CCC(=O)NC8=O)c(=O)c67)CC5)c4Cl)c(N)n3)CC2)[C@@H]1N (stereo partly drawn) [Example 79, N-(3-((3-amino-5-((3S,4S)-4-amino-3-methyl-2-oxa-8-azaspiro[4.5]decan-8-yl)pyrazin-2-yl)thio)-2-chlorophenyl)-4-(4-(1-((3-(2,6-dioxopiperidin-3-yl)-4-oxo-3,4-dihydrophthalazin-5-yl)amino)-3,6,9,12,15,18-hexaoxahenicosane-21-oyl)piperazin-1-yl)-4-oxobutanamide]	–	effectively degraded	0.0236 µM	0.337 µM	inhibited effectively
